From ChEMBL document CHEMBL4433268, “Rational design of a SHP-2 targeted, fluorogenic peptide substrate” (Bioorg Med Chem Lett, 2019)
Calls of active or inactive are those of the source. No cut-off for these calls is given here. Non-standard residues stand in square brackets, D forms with d. Residues, ends and D or L forms follow the SMILES beside them. Ala(7-OPO3H2-coumarin-4-yl) = N[C@@H](Cc1cc(=O)oc2cc(OP(=O)(O)O)ccc12)C(=O)O

What was measured:
[1] = biological target: Receptor-type tyrosine-protein phosphatase mu (Homo sapiens) (UniProt P28827); assay: Substrate activity at PTPmu (unknown origin) expressed in Escherichia coli BL21 (DE3) incubated for 60 mins by fluorescence based assay
Sequence of Receptor-type tyrosine-protein phosphatase mu (Homo sapiens) (P28827 whole entry): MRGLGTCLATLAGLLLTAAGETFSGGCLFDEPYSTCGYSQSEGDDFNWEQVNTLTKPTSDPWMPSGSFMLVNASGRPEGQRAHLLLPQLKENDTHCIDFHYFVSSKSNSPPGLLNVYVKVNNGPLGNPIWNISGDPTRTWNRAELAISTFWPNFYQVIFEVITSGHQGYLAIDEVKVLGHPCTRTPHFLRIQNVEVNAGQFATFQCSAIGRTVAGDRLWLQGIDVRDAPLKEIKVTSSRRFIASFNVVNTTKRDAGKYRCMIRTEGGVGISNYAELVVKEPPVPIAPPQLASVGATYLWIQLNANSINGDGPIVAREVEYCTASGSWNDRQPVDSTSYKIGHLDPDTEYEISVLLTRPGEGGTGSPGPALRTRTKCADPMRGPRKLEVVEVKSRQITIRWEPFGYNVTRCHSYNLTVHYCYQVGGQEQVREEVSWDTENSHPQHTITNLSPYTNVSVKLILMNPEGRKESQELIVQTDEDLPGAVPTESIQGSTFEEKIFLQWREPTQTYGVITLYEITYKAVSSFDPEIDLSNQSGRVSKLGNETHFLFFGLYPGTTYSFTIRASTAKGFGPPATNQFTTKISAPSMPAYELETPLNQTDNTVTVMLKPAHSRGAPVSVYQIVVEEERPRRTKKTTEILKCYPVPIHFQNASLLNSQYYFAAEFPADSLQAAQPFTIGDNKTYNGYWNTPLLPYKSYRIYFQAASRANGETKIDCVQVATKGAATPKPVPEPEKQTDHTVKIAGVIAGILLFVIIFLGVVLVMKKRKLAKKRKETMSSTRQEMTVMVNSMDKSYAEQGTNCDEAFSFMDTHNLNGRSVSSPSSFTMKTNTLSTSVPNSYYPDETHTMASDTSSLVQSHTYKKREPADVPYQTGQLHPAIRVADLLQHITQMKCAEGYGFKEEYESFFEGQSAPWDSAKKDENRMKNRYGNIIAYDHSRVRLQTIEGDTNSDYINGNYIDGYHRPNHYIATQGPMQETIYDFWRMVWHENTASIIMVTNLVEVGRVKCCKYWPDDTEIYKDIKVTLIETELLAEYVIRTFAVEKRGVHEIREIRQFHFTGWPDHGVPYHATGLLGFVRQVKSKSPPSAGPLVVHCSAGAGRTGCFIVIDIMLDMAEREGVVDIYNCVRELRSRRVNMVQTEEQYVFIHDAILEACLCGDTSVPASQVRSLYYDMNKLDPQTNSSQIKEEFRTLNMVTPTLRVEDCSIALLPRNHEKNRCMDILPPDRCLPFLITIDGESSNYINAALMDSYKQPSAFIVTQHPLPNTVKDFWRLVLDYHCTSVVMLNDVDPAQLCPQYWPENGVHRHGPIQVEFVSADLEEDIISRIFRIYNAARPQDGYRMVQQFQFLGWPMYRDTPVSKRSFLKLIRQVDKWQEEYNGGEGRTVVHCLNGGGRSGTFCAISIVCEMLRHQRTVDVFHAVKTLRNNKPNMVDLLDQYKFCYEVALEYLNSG

[2] = biological target: T1, Tyrosine-protein phosphatase non-receptor type 4 (Homo sapiens) (UniProt P29074); assay: Substrate activity at MEG1 (unknown origin) expressed in Escherichia coli BL21 (DE3) incubated for 60 mins by fluorescence based assay
T1 sequence (whole entry): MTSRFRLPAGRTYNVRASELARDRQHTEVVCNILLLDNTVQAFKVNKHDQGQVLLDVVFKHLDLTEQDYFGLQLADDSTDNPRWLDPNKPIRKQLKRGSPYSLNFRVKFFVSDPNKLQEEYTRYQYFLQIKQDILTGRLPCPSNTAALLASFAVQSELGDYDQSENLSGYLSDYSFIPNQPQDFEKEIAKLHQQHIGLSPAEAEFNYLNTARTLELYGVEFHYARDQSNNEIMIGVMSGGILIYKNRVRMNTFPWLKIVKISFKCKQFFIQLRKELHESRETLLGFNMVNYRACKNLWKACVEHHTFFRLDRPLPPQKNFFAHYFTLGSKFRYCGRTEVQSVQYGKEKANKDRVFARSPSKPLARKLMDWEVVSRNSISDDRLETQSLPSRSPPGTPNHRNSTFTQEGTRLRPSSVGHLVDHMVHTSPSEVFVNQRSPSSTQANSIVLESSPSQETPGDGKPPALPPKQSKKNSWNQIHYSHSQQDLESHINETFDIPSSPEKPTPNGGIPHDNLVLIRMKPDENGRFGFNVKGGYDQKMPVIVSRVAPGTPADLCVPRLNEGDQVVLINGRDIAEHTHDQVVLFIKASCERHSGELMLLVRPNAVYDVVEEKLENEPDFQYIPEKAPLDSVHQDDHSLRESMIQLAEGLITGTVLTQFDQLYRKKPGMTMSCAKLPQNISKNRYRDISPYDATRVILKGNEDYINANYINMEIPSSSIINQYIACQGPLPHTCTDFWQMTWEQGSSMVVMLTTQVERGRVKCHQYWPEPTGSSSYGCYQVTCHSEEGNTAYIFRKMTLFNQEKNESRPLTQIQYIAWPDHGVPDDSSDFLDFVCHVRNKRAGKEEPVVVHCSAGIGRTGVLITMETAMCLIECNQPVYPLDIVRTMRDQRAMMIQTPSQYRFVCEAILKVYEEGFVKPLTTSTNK

[3] = biological target: T2, Tyrosine-protein phosphatase non-receptor type 11 (Homo sapiens) (UniProt Q06124); assay: Substrate activity at SHP2 (unknown origin) expressed in Escherichia coli BL21 (DE3) incubated for 60 mins by fluorescence based assay
T2 sequence (whole entry): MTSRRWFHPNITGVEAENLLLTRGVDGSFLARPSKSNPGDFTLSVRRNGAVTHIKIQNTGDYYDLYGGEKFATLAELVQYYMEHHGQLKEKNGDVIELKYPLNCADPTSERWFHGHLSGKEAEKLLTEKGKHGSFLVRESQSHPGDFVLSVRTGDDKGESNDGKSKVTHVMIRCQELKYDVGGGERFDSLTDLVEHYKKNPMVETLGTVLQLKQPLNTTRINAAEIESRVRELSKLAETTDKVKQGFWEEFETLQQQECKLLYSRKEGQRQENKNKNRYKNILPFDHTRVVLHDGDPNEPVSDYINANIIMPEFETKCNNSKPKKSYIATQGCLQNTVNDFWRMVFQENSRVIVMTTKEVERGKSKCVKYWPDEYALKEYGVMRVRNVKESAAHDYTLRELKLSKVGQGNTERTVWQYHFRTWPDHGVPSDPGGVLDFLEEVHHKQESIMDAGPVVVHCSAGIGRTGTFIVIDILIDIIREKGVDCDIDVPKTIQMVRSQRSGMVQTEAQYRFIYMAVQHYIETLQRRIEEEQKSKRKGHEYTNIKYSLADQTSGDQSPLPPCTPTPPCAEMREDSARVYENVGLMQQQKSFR

[4] = biological target: T3, Tyrosine-protein phosphatase non-receptor type 22 (Homo sapiens) (UniProt Q9Y2R2); assay: Substrate activity at LYP (unknown origin) expressed in Escherichia coli BL21 (DE3) incubated for 60 mins by fluorescence based assay
T3 sequence (whole entry): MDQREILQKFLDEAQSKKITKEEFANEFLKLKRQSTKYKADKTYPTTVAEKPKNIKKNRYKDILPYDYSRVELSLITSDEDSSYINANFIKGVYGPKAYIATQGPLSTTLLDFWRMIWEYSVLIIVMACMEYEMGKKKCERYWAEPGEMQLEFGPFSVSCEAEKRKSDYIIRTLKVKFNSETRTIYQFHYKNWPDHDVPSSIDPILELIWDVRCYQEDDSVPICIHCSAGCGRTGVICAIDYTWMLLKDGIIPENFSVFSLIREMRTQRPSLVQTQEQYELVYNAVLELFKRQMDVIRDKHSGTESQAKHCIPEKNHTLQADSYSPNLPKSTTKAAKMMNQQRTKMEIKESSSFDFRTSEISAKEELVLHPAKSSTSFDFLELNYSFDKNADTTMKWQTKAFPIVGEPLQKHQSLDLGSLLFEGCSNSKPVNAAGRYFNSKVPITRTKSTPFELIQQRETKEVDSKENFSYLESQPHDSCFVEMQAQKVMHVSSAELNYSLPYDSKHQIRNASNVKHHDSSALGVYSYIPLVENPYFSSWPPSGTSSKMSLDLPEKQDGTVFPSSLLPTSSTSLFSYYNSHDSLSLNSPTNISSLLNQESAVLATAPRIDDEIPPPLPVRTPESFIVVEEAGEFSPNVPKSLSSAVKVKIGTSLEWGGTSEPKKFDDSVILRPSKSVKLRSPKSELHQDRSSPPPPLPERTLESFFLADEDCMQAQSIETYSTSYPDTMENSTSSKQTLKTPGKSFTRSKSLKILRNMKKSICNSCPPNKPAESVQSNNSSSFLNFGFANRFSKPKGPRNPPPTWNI

[5] = biological target: T4, Tyrosine-protein phosphatase non-receptor type 7 (Homo sapiens) (UniProt P35236); assay: Substrate activity at HEPTP (unknown origin) expressed in Escherichia coli BL21 (DE3) incubated for 60 mins by fluorescence based assay
T4 sequence (whole entry): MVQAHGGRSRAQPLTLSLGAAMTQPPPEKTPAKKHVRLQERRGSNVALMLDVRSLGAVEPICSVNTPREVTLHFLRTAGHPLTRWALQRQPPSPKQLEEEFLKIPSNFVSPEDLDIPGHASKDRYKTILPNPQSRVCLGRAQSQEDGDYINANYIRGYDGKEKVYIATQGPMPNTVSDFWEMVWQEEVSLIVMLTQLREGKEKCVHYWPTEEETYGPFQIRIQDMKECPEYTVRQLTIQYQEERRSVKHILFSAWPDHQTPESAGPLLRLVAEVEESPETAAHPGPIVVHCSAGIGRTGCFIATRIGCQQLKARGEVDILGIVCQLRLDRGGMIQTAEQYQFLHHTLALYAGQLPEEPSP

Row | SMILES | Activity [1] | Activity [2] | Activity [3] | Activity [4] | Activity [5]
1 | CC[C@H](C)[C@H](NC(=O)[C@@H](NC(=O)[C@H](CC(=O)O)NC(=O)[C@H](CC(=O)O)NC(C)=O)[C@@H](C)O)C(=O)N[C@@H](Cc1cc(=O)oc2cc(OP(=O)(O)O)ccc12)C(=O)N[C@@H](CC(=O)O)C(=O)N[C@H](C(=O)N[C@@H](CC(C)C)C(=O)N[C@@H](CC(=O)O)C(N)=O)C(C)C (Ac-DDTI[Ala(7-OPO3H2-coumarin-4-yl)]DVLD-NH2) | inactive | inactive | Active | Active | inactive
2 | CC[C@H](C)[C@H](NC(=O)[C@@H](NC(=O)[C@H](CC(=O)O)NC(=O)[C@H](CC(=O)O)NC(C)=O)[C@@H](C)O)C(=O)N[C@@H](Cc1cc(=O)oc2cc(OP(=O)(O)O)ccc12)C(=O)N[C@H](C(=O)N[C@H](C(=O)N[C@@H](CC(C)C)C(=O)N[C@@H](CC(=O)O)C(N)=O)C(C)C)[C@@H](C)O (Ac-DDTI[Ala(7-OPO3H2-coumarin-4-yl)]TVLD-NH2) | inactive |  | Active |  | 
3 | CC[C@H](C)[C@H](NC(=O)[C@@H](NC(=O)[C@H](CC(=O)O)NC(=O)[C@H](CC(=O)O)NC(C)=O)[C@@H](C)O)C(=O)N[C@@H](Cc1cc(=O)oc2cc(OP(=O)(O)O)ccc12)C(=O)N[C@H](C(=O)N[C@H](C(=O)N[C@@H](CC(C)C)C(=O)N[C@@H](CC(=O)O)C(N)=O)C(C)C)C(C)C (Ac-DDTI[Ala(7-OPO3H2-coumarin-4-yl)]VVLD-NH2) | inactive | Active | Active | Active | Active
4 | CC[C@H](C)[C@H](NC(=O)[C@@H](NC(=O)[C@@H]1CCCN1C(=O)[C@H](CC(=O)O)NC(C)=O)[C@@H](C)O)C(=O)N[C@@H](Cc1cc(=O)oc2cc(OP(=O)(O)O)ccc12)C(=O)N1CCC[C@H]1C(=O)N[C@H](C(=O)N[C@@H](CC(C)C)C(=O)N[C@@H](CC(=O)O)C(N)=O)C(C)C (Ac-DPTI[Ala(7-OPO3H2-coumarin-4-yl)]PVLD-NH2) | inactive |  | Active |  | 
5 | CC[C@H](C)[C@H](NC(=O)[C@@H](NC(=O)[C@H](CO)NC(=O)[C@H](CC(=O)O)NC(C)=O)[C@@H](C)O)C(=O)N[C@@H](Cc1cc(=O)oc2cc(OP(=O)(O)O)ccc12)C(=O)N[C@@H](CC(=O)O)C(=O)N[C@H](C(=O)N[C@@H](CC(C)C)C(=O)N[C@@H](CC(=O)O)C(N)=O)C(C)C (Ac-DSTI[Ala(7-OPO3H2-coumarin-4-yl)]DVLD-NH2) | inactive |  | Active |  | 
6 | CC[C@H](C)[C@H](NC(=O)[C@@H](NC(=O)[C@H](CO)NC(=O)[C@H](CC(=O)O)NC(C)=O)[C@@H](C)O)C(=O)N[C@@H](Cc1cc(=O)oc2cc(OP(=O)(O)O)ccc12)C(=O)N[C@H](C(=O)N[C@H](C(=O)N[C@@H](CC(C)C)C(=O)N[C@@H](CC(=O)O)C(N)=O)C(C)C)[C@@H](C)O (Ac-DSTI[Ala(7-OPO3H2-coumarin-4-yl)]TVLD-NH2) | inactive |  | Active |  | 
7 | CC[C@H](C)[C@H](NC(=O)[C@@H](NC(=O)[C@H](CO)NC(=O)[C@H](CC(=O)O)NC(C)=O)[C@@H](C)O)C(=O)N[C@@H](Cc1cc(=O)oc2cc(OP(=O)(O)O)ccc12)C(=O)N[C@H](C(=O)N[C@H](C(=O)N[C@@H](CC(C)C)C(=O)N[C@@H](CC(=O)O)C(N)=O)C(C)C)C(C)C (Ac-DSTI[Ala(7-OPO3H2-coumarin-4-yl)]VVLD-NH2) | inactive |  | Active |  | 
